Measured values published in patent US7704992B2, “Hepatitis C virus inhibitors” (Bristol-Myers Squibb Company, priority 2008, dated 2010).

system: HCV 1b-377-neo replicon cells; test: HCV Replicon assay, HCV 1b genotype; format: cell-based; conditions: Hepatitis C virus, class symbol, read-out: EC50 range against HCV 1b
Method: An HCV Replicon assay was utilized in the present disclosure, and was prepared, conducted and validated as described in commonly owned PCT/US2006/022197 and in O'Boyle et. al. Antimicrob Agents Chemother. 2005 April; 49(4): 1346-53.
HCV 1b-377-neo replicon cells were used to test the currently described compound series as well as cells resistant to compound A containing a Y2065H mutation in NS5A (described in application PCT/US2006/022197). The compounds tested were determined to have more than 10-fold less inhibitory activity on cells containing the mutation than wild-type cells indicating a related mechanism of action between the two compound series. Thus, the compounds of the present disclosure can be effective to inhibit the function of the HCV NS5A protein and are understood to be as effective in combinations as previously described in application PCT/US2006/022197 and commonly owned WO/04014852. Further, the compounds of the present disclosure can be effective against the HCV 1b genotype. It should also be understood that the compounds of the present disclosure can inhibit multiple genotypes of HCV. […] In one embodiment compounds of the present disclosure are active against the 1a, 1b, 2a, 2b, 3a, 4a, and 5a genotypes.

Row | SMILES | EC50
1 | COC(=O)N[C@H](C(=O)N1CCC[C@H]1c1ncc(-c2ccc3c(c2)C(C)(N(C)C)c2cc(-c4cnc([C@@H]5CCCN5C(=O)[C@@H](NC(=O)OC)C(C)C)[nH]4)ccc2-3)[nH]1)C(C)C [Example 13, methyl ((1S)-1-(((2S)-2-(5-(9-(dimethylamino)-7-(2-((2S)-1-((2S)-2-((methoxycarbonyl)amino)-3-methylbutanoyl)-2-pyrrolidinyl)-1H-imidazol-5-yl)-9-methyl-9H-fluoren-2-yl)-1H-imidazol-2-yl)-1-pyrrolidinyl)carbonyl)-2-methylpropyl)carbamate] | 0.001 to 0.1 nM
2 | COC(=O)N[C@H](C(=O)N1CCC[C@H]1c1ncc(-c2ccc3c(c2)C(C)(C)c2cc(-c4cnc([C@@H]5CCCN5C(=O)[C@@H](NC(=O)OC)C(C)C)[nH]4)ccc2-3)[nH]1)C(C)C [Example 14, methyl ((1S)-1-(((2S)-2-(5-(7-(2-((2S)-1-((2S)-2-((methoxycarbonyl)amino)-3-methylbutanoyl)-2-pyrrolidinyl)-1H-imidazol-5-yl)-9,9-dimethyl-9H-fluoren-2-yl)-1H-imidazol-2-yl)-1-pyrrolidinyl)carbonyl)-2-methylpropyl)carbamate] | 0.001 to 0.1 nM
3 | COC(=O)N[C@H](C(=O)N1CCC[C@H]1c1ncc(-c2ccc3c(c2)C2(CCC2)c2cc(-c4cnc([C@@H]5CCCN5C(=O)[C@@H](NC(=O)OC)C(C)C)[nH]4)ccc2-3)[nH]1)C(C)C [Example 16, methyl ((1S)-1-(((2S)-2-(5-(7′-(2-((2S)-1-((2S)-2-((methoxycarbonyl)amino)-3-methylbutanoyl)-2-pyrrolidinyl)-1H-imidazol-5-yl)spiro[cyclobutane-1,9′-fluoren]-2′-yl)-1H-imidazol-2-yl)-1-pyrrolidinyl)carbonyl)-2-methylpropyl)carbamate] | 0.001 to 0.1 nM
4 | COC(=O)N[C@@H](C)C(=O)N1CCC[C@H]1c1ncc(-c2ccc3c(c2)C2(CCC2)c2cc(-c4cnc([C@@H]5CCCN5C(=O)[C@H](C)NC(=O)OC)[nH]4)ccc2-3)[nH]1 [Example 17] | 0.001 to 0.1 nM
5 | COC(=O)N[C@H](C(=O)N1CCC[C@H]1c1ncc(-c2ccc3c(c2)oc2cc(-c4cnc([C@@H]5CCCN5C(=O)[C@@H](NC(=O)OC)C(C)C)[nH]4)ccc23)[nH]1)C(C)C [Example 18, methyl ((1S)-1-(((2S)-2-(4-(7-(2-((2S)-1-((2S)-2-((methoxycarbonyl)amino)-3-methylbutanoyl)-2-pyrrolidinyl)-1H-imidazol-4-yl)dibenzo[b,d]furan-3-yl)-1H-imidazol-2-yl)-1-pyrrolidinyl)carbonyl)-2-methylpropyl)carbamate] | 0.001 to 0.1 nM
6 | COC(=O)N[C@H](C(=O)N1CCC[C@H]1c1ncc(-c2ccc3c(c2)oc2cc(-c4cnc([C@@H]5CCCN5C(=O)[C@@H](NC(=O)OC)C5CC5)[nH]4)ccc23)[nH]1)C1CC1 [Example 19, dimethyl (dibenzo[b,d]furan-3,7-diylbis(1H-imidazole-4,2-diyl(2S)-2,1-pyrrolidinediyl((1S)-1-cyclopropyl-2-oxo-2,1-ethanediyl)))biscarbamate] | 0.001 to 0.1 nM
7 | COC(=O)N[C@H](C(=O)N1CCC[C@H]1c1ncc(-c2ccc3c(c2)oc2cc(-c4cnc([C@@H]5CCCN5C(=O)[C@@H](NC(=O)OC)C(C)(C)C)[nH]4)ccc23)[nH]1)C(C)(C)C [Example 20, methyl ((1S)-1-(((2S)-2-(4-(7-(2-((2S)-1-((2S)-2-((methoxycarbonyl)amino)-3,3-dimethylbutanoyl)-2-pyrrolidinyl)-1H-imidazol-4-yl)dibenzo[b,d]furan-3-yl)-1H-imidazol-2-yl)-1-pyrrolidinyl)carbonyl)-2,2-dimethylpropyl)carbamate] | 0.001 to 0.1 nM
8 | COC(=O)N[C@H](C(=O)N1CCC[C@H]1c1ncc(-c2ccc3c(c2)oc2cc(-c4cnc([C@@H]5CCCN5C(=O)[C@@H](NC(=O)OC)C(C)(C)O)[nH]4)ccc23)[nH]1)C(C)(C)O [Example 21, methyl ((1S)-2-hydroxy-1-(((2S)-2-(4-(7-(2-((2S)-1-((2S)-3-hydroxy-2-((methoxycarbonyl)amino)-3-methylbutanoyl)-2-pyrrolidinyl)-1H-imidazol-4-yl)dibenzo[b,d]furan-3-yl)-1H-imidazol-2-yl)-1-pyrrolidinyl)carbonyl)-2-methylpropyl)carbamate] | 0.001 to 0.1 nM
9 | COC(=O)N[C@@H](C)C(=O)N1CCC[C@H]1c1ncc(-c2ccc3c4ccc(-c5cnc([C@@H]6CCCN6C(=O)[C@H](C)NC(=O)OC)[nH]5)cc4n(C)c3c2)[nH]1 [Example 22, methyl ((1S)-2-((2S)-2-(5-(7-(2-((2S)-1-(N-(methoxycarbonyl)-L-alanyl)-2-pyrrolidinyl)-1H-imidazol-5-yl)-9-methyl-9H-carbazol-2-yl)-1H-imidazol-2-yl)-1-pyrrolidinyl)-1-methyl-2-oxoethyl)carbamate] | 1 to 99 nM
10 | COC(=O)N[C@H](C(=O)N1CCC[C@H]1c1ncc(-c2ccc3c4ccc(-c5cnc([C@@H]6CCCN6C(=O)[C@@H](NC(=O)OC)C(C)C)[nH]5)cc4n(C)c3c2)[nH]1)C(C)C [Example 25, methyl ((1S)-1-(((2S)-2-(5-(7-(2-((2S)-1-((2S)-2-((methoxycarbonyl)amino)-3-methylbutanoyl)-2-pyrrolidinyl)-1H-imidazol-5-yl)-9-methyl-9H-carbazol-2-yl)-1H-imidazol-2-yl)-1-pyrrolidinyl)carbonyl)-2-methylpropyl)carbamate] | 0.001 to 0.1 nM
11 | COC(=O)N[C@@H](C)C(=O)N1CCC[C@H]1c1ncc(-c2ccc3c4ccc(-c5cnc([C@@H]6CCCN6C(=O)[C@H](C)NC(=O)OC)[nH]5)cc4n(S(=O)(=O)c4ccccc4)c3c2)[nH]1 [Example 26, methyl ((1S)-2-((2S)-2-(5-(7-(2-((2S)-1-(N-(methoxycarbonyl)-L-alanyl)-2-pyrrolidinyl)-1H-imidazol-5-yl)-9-(phenylsulfonyl)-9H-carbazol-2-yl)-1H-imidazol-2-yl)-1-pyrrolidinyl)-1-methyl-2-oxoethyl)carbamate] | 0.001 to 0.1 nM
12 | COC(=O)N[C@H](C(=O)N1CCC[C@H]1c1ncc(-c2ccc3c4ccc(-c5cnc([C@@H]6CCCN6C(=O)[C@@H](NC(=O)OC)C(C)C)[nH]5)cc4n(S(=O)(=O)c4ccccc4)c3c2)[nH]1)C(C)C [Example 27, methyl ((1S)-1-(((2S)-2-(5-(7-(2-((2S)-1-((2S)-2-((methoxycarbonyl)amino)-3-methylbutanoyl)-2-pyrrolidinyl)-1H-imidazol-5-yl)-9-(phenylsulfonyl)-9H-carbazol-2-yl)-1H-imidazol-2-yl)-1-pyrrolidinyl)carbonyl)-2-methylpropyl)carbamate] | 0.001 to 0.1 nM
13 | COCC[C@H](NC(=O)OC)C(=O)N1CCC[C@H]1c1ncc(-c2ccc3c4ccc(-c5cnc([C@@H]6CCCN6C(=O)[C@H](CCOC)NC(=O)OC)[nH]5)cc4n(S(=O)(=O)c4ccccc4)c3c2)[nH]1 [Example 28, methyl ((1S)-3-methoxy-1-(((2S)-2-(5-(7-(2-((2S)-1-(N-(methoxycarbonyl)-O-methyl-L-homoseryl)-2-pyrrolidinyl)-1H-imidazol-5-yl)-9-(phenylsulfonyl)-9H-carbazol-2-yl)-1H-imidazol-2-yl)-1-pyrrolidinyl)carbonyl)propyl)carbamate] | 0.001 to 0.1 nM

same assay, conditions: Hepatitis C virus, value in nM, read-out: EC50 value against HCV 1b

Row | SMILES | EC50
14 | COC(=O)N[C@@H](C)C(=O)N1CCC[C@H]1c1ncc(-c2ccc3c(c2)[nH]c2cc(-c4cnc([C@@H]5CCCN5C(=O)[C@H](C)NC(=O)OC)[nH]4)ccc23)[nH]1 [Example 30, methyl ((1S)-2-((2S)-2-(5-(7-(2-((2S)-1-(N-(methoxycarbonyl)-L-alanyl)-2-pyrrolidinyl)-1H-imidazol-5-yl)-9H-carbazol-2-yl)-1H-imidazol-2-yl)-1-pyrrolidinyl)-1-methyl-2-oxoethyl)carbamate] | 20 nM

same assay, conditions: Hepatitis C virus, value in pM, read-out: EC50 value against HCV 1b

Row | SMILES | EC50
15 | COC(=O)N[C@H](C(=O)N1CCC[C@H]1c1ncc(-c2ccc3c(c2)C(C)(C)c2cc(-c4cnc([C@@H]5CCCN5C(=O)[C@@H](NC(=O)OC)C5CC5)[nH]4)ccc2-3)[nH]1)C1CC1 [Example 15, dimethyl ((9,9-dimethyl-9H-fluorene-2,7-diyl)bis(1H-imidazole-5,2-diyl(2S)-2,1-pyrrolidinediyl((1S)-1-cyclopropyl-2-oxo-2,1-ethanediyl)))biscarbamate] | 0.052 nM

same assay, conditions: class symbol, read-out: EC50 range against HCV 1b

Row | SMILES | EC50
16 | COC(=O)N[C@H](C(=O)N1CCC[C@H]1c1ncc(-c2ccc3c4ccc(-c5cnc([C@@H]6CCCN6C(=O)[C@@H](NC(=O)OC)[C@@H](C)OC)[nH]5)cc4n(C)c3c2)[nH]1)[C@@H](C)OC [Example 23, methyl ((1S,2R)-2-methoxy-1-(((2S)-2-(5-(7-(2-((2S)-1-(N-(methoxycarbonyl)-O-methyl-L-threonyl)-2-pyrrolidinyl)-1H-imidazol-5-yl)-9-methyl-9H-carbazol-2-yl)-1H-imidazol-2-yl)-1-pyrrolidinyl)carbonyl)propyl) carbamate] | 0.001 to 0.1 nM
17 | COCC[C@H](NC(=O)OC)C(=O)N1CCC[C@H]1c1ncc(-c2ccc3c4ccc(-c5cnc([C@@H]6CCCN6C(=O)[C@H](CCOC)NC(=O)OC)[nH]5)cc4n(C)c3c2)[nH]1 [Example 24, methyl ((1S)-3-methoxy-1-(((2S)-2-(5-(7-(2-((2S)-1-(N-(methoxycarbonyl)-O-methyl-L-homoseryl)-2-pyrrolidinyl)-1H-imidazol-5-yl)-9-methyl-9H-carbazol-2-yl)-1H-imidazol-2-yl)-1-pyrrolidinyl)carbonyl)propyl) carbamate] | 0.101 to 0.999 nM
